Assay [1] addresses T1, prolyl endopeptidase (Sus scrofa, UniProt P23687).
T1 construct: swine kidney-derived prolyl endopeptidase; from tissue; host or cells: swine kidney
The experiment in a line: Enzyme inhibitory action on swine kidney-derived prolyl endopeptidase (Z-Gly-Pro-β-naphthylamide substrate). Format: biochemical. The conditions noted are these: for pIC50: swine kidney prolyl endopeptidase, 0.1 mM substrate, 37° C., 30 minutes, pH 7.5; for prolyl endopeptidase inhibition activity (in words): in vitro, qualitative statement. On the procedure:
(§1) Using 0.1 mM of benzyolxycarbonylglycylproline-β-naphthylamide as substrate and swine kidney-derived prolyl endopeptidase as enzyme, the enzyme was acted on the substrate at 37° C. for 30 minutes in 0.025 M Tris(hydroxymethyl)methane amine-hydrochloric acid (pH 7.5) solution. Fast Garnet was added to form a color and absorbance was measured at 525 nm. The inhibitory activity is expressed in terms of concentration required for 50% inhibition (IC50).

The subject of assay [2] is prolyl endopeptidase in mouse brain. The experiment in a line: Prolyl endopeptidase inhibition activity in mouse brain after intravenous administration. To be noted: 30 mg/kg i.v., 30 minutes after administration, control = 100. It is filed as in vivo, mouse (male ddy strain). On the procedure: as §1
Each of the compounds of the present invention was dissolved in physiological saline or physiological saline added with a surfactant. The solution was intravenously administered to male ddy strain mice (3 in one group) at a dose of 30 mg/kg. For control, physiological saline or a surfactant alone was intravenously given to 3 mice in a similar manner.
Thirty minutes after administration, the animal was bled to death and the whole brain was excised out. Each brain was homogenized with 20-fold volume of 0.1M phosphate buffer containing 2 mM DTT and the homogenate was centrifuged at 3000 g for 20 minutes. The prolyl endopeptidase in the resulting supernatant was determined as in Experiment 1, as β-naphthylamine isolated. When the mean enzyme activity in the mouse brain for control is made 100 (β-naphthylamine value: 3.88±0.26), the residual enzyme activity was determined when the compounds of the present invention was administered.

pIC50: −log10 of the molar value.

T1 sequence (P23687 whole entry): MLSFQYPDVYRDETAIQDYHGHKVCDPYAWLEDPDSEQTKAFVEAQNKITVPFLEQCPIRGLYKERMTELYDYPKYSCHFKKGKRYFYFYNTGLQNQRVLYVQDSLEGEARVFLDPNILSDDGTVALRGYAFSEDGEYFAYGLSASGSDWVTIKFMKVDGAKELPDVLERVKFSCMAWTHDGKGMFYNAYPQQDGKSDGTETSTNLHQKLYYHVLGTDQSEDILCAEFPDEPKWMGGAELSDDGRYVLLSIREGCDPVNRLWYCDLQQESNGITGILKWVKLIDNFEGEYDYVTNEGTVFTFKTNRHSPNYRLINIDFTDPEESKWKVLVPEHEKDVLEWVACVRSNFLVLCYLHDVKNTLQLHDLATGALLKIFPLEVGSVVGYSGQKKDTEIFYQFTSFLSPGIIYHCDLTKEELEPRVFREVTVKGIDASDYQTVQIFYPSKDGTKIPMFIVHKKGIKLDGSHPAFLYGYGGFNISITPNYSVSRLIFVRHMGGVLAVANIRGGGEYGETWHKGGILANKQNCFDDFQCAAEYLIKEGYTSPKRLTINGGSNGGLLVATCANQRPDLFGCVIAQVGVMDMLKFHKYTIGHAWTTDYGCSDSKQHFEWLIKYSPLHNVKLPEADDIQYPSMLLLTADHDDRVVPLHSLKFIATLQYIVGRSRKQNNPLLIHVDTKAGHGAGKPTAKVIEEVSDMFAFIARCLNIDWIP

One may read the pIC50 as the negative decadic logarithm of the IC50, by convention in mol/L. High values mean a small IC50, low ones a large IC50. `O=C(NC1CCCCC1)C(=O)C1CCCN1C(=O)c1ccc(CN2CCOCC2)cc1` (stereo not shown) [Example 84, N-Cyclohexyl-2-oxo-2-[2-(1-(4-morpholinomethylbenzoyl)pyrrolidinyl)]acetamide] had a pIC50 in assay [1] of 7.14. Further, the “Residual Enzyme Activity (%)” value in assay [2] came to 50.3%.

`O=C(NC1CCCCC1)C(=O)C1CCCN1C(=O)C(Cc1ccccc1)NC(=O)c1ccccn1` (stereo not shown) [Example 26, N-Cyclohexyl-2-oxo-2-[2-(1-(N-(2-pyridylcarbonyl)phenylalanyl)pyrrolidinyl)]acetamide]: the pIC50 in assay [1] is 8.75. In addition, the “Residual Enzyme Activity (%)” value in assay [2] is on record as 5.7%. The corresponding values for `O=C(NC1CCCCC1)C(=O)C1CCCN1C(=O)c1ccc2ccccc2c1` (stereo not shown) [Example 64, N-Cyclohexyl-2-oxo-2-[2-(1-(2-naphthoyl)pyrrolidinyl)]acetamide] are 7.66 and 50.5%. Take `O=C[C@@H]1CCCN1C(=O)[C@H](Cc1ccccc1)NC(=O)c1cccc(Oc2ccccc2)c1` [Reference Example 4, N-(N-(3-Phenoxybenzoyl)-L-phenylalanyl)-L-prolinal, reference compound]: in assay [1], the pIC50 was 6.60. In the case of `O=C(NC1CC1)C(=O)C1CCCN1C(=O)C(Cc1ccccc1)NC(=O)c1cccc(Oc2ccccc2)c1` (stereo not shown) [Example 108, N-Cyclopropyl-2-oxo-2-[2-(1-(N-(3-phenoxybenzoyl)phenylalanyl)pyrrolidinyl)]acetamide], in assay [1], the “prolyl endopeptidase inhibition activity (in words)” value is on record as “potent inhibition activity on almost the same level” and the pIC50 is 8.88. Compound `O=C(NC1CCCCC1)C(=O)C1CCCN1C(=O)C=Cc1ccc(Cl)cc1` (stereo not shown) [Example 70, N-Cyclohexyl-2-oxo-2-[2-(1-(3-(4-chlorophenyl)acryloyl)pyrrolidinyl)]acetamide] had a pIC50 in assay [1] of 6.96.

As for `O=C(NC1CCCC1)C(=O)C1CCCN1C(=O)C(Cc1ccccc1)NC(=O)c1cccc(Oc2ccccc2)c1` (stereo not shown) [Example 13, N-Cyclopentyl-2-oxo-2-[2-(1-(N-(3-phenoxybenzoyl)phenylalanyl)pyrrolidinyl)]acetamide], in assay [1], the “prolyl endopeptidase inhibition activity (in words)” value is listed as “potent inhibition activity on almost the same level” and the pIC50 is 8.83.

In the case of `O=C(CSc1ccccc1)NC(Cc1ccccc1)C(=O)N1CCCC1C(=O)C(=O)NC1CCCCC1` (stereo not shown) [Example 47, N-Cyclohexyl-2-oxo-2-[2-(1-(N-(phenylthioacetyl)-phenylalanyl)pyrrolidinyl)]acetamide], the pIC50 in assay [1] is 8.81.

The record behind these values is US5756763A, “Pyrrolidine derivatives” (Zaidan Hojin Biseibutsu Kagaku Kenkyukai, priority 1993, dated 1998).
